The nature of series [1]: Crystal growth of C by evaporation of aqueous solution, no seed crystals, with polypeptide additives. It counts as physicochemical. The procedure: (§1) We obtained the crystals of m^5U, C, and I, respectively, by evaporation of their aqueous solutions at room temperature. m^5U was known to be crystallized from aqueous ethanol solutions. […] On day 1, each sample vial was first added 600 μL of 400 mM m^5U solution. Then 20 μL of water or polypeptide solutions at certain concentrations were added into each vial. The final m^5U concentration was 387 mM in each vial. The additive/m^5U molar ratios (×10^−5) were varied from 0, 0.04, 0.4, 1.0, 1.2, 3.0, 4.0, 7.8, and 9.0. The vials were gently swirled after the addition and were left open in the air at the room temperature. At least three observations were recorded per day (every 8 hours) until the solutions in all the vials were dry. The experiments were repeated five times (Table 1).
(§2) In previous reports, crystals of C were prepared by evaporating of its aqueous ethanol solutions. Here we obtained C crystals by evaporation of its aqueous solution. […] By slowly evaporating its aqueous solution at 20° C., the pure α-form I crystals were obtained. The experimental procedures for C and I were similar to those described above for m^5U, while the concentrations of C and I solutions were 252 mM and 92 mM, respectively, in each sample vial on day 1 and the additive/C molar ratios (×10^−5) were varied from 0, 0.04, 0.4, 1.0, 1.2, 3.0, 4.0, 7.9, and 10.0 and the additive/I molar ratios (×10^−5) were varied from 0, 0.05, 0.5, 1.1, 2.2, 4.4, 8.1, 10.8, and 21.7. Photos of the vials were taken with a Canon EOS 30D camera during the crystallization process and when the process finished. Optical micrographs were taken under Nikon SMZ800 microscope with a Nikon Coolpix 5400 when the crystallization completed. […]
(§3) Powder X-ray diffraction (PXRD) data were collected at room temperature on a Rigaku Mini Flex II desktop diffractometer using Cu Kα radiation (30 kV, 15 mA) with a 2θ range of 5°-50°, a step size of 0.010°, and a step time of 2 s. […] The same amount of the resulting powders was then mounted and analyzed on a front loading sample holder.

Series [2] can be described thus: Crystal growth of I by evaporation of aqueous solution, no seed crystals, with polypeptide additives. It counts as physicochemical. The procedure: as §1, §2, §3
For series [3] the following is noted: copper sulfate pentahydrate aqueous solution, no additive.
Description: To further test the effect of AFP on different types of compounds, we tested copper sulfate pentahydrate. The crystal grows from copper sulfate pentahydrate aqueous solutions at room temperature. Seventy milligrams of copper sulfate pentahydrate were dissolved in one milliliter of deionized, milli-Q water. The solution was filtered and left in the air for evaporation. In the presence AFPs, the conditions were all the same except DAFP-1 was added to the solution at the molar ratio of 10^−7 to copper sulfate.
Series [4] can be described thus: Stability of m^5U crystal forms left in air at room temperature. It counts as physicochemical. From the text: The only previously known crystalline form of m^5U is its hemihydrate crystal, designated form I, which was crystallized exclusively by evaporation from the supersaturated aqueous solutions. By using DAFP-1 as an additive, remarkably, we were able to control the crystallization of m^5U and discover a new, less thermodynamically and kinetically preferred form, m^5U dihydrate crystal, designated form II. Forms I and II crystals are readily distinguished from each other by their morphology and stability. Form I crystals are needle-like in appearance (FIG. 16(a)) and there was no change (in the appearance, single crystal X-ray diffraction pattern, or DSC profile) of the crystals after being left in air at room temperature for more than 24 months. Form II crystals are block-shaped (FIG. 16(b)) and became white opaque powders/blocks in 2 months. The resulting solids were not suitable for single-crystal X-ray diffraction.

Series [5] can be described thus: DSC thermodynamic stability analysis of m^5U forms. Format: physicochemical. The procedure: Thermodynamic Stability Analysis. Both forms of m^5U were analyzed by DSC (FIG. 20). […] The first endotherm associated with water loss is at 139.07° C., whereas the second endotherm ascribed to the melting is at 185.65° C. […] Form II starts losing water and then melts at relatively lower temperatures than those of form I. The enthalpy profiles for both forms are compared in FIG. 21.
All experiments were performed with a DSC 1 (Mettler Toledo, Ohio). An indium standard (Mettler Toledo, Ohio) was used to calibrate the instrument. Samples weighed 3-4 mg and were hermetically encapsulated in standard aluminum sample pans with pierced lids to release any pressure build-up during the experiments. The samples were heated from 25 to 200° C. at a rate of 5° C./min.
(In general: Differential scanning calorimetry records heat flow against a reference as temperature is scanned.)

Series [6] in a line: Crystallization and crystallization kinetics of m^5U form I and form II from supersaturated solution. Format: physicochemical. As to conditions: for Day the crystallization completes / Day the crystallization starts: 595 mM m^5U, form I in absence of DAFP-1, form II in presence of DAFP-1 (additive/m^5U 5×10^−6); for Average crystal growth rate: estimated from mass increase of crystals, form I without, form II with DAFP-1; for Crystal morphology of the form: optical micrographs. The procedure: Supersaturated m^5U aqueous solutions (0.6 M) were made at 30° C. and filtered as soon as possible. Crystals were not grown after the temperature dropped to room temperature for a few days. On day 1, to each sample vial was added 600 μL of 0.6 M m^5U solution, and then 5 μL of water or DAFP solution were added into the vial. The vials were gently swirled after the additions. The resulting m^5U concentration was 595 mM in each vial and additive/m^5U molar ratios (×10^−6) were either 0 or 5. The sample vials were left open in the air at room temperature and three observations at least were recorded per day (every 8 hours) until the solutions in all the vials were dry. The above experiments were repeated five times. Optical micrographs were taken under Nikon SMZ800 microscope with a Nikon Coolpix 5400 when the crystallization completed. Under the above conditions, only form I crystalline m^5U was able to grow in the absence of DAFP-1; however, in the presence of DAFP-1, form II crystalline m^5U was grown exclusively. The kinetics of crystallization of m^5U form I and form II, respectively, was estimated based on the rate of the weight of the occurring crystals and the initial weight of m^5U in the specific vial. All the liquid in the vial was collected gently and the weight of the vial or the vial with crystals was measured. After the measurement, the collected liquid was put back into the vial and the crystallization continued. The weights were measured on an Ohaus Discovery semi-micro analytical balance at 9 am every day until the crystallization finished. The experiments were repeated on three vials and the average values were reported.

The nature of series [7]: Crystal growth of m^5U by evaporation of aqueous solution, no seed crystals, with polypeptide additives. It counts as physicochemical. The protocol: as §1
All the resulting solids were sent to X-ray crystallography laboratory at the Beckman Institute of California Institute of Technology for analysis. The qualities of the solids for single crystal X-ray diffraction were determined (Table 1). […] The resolution of the data was improved compared with that of previously reported data of m^5U. The crystallographic data of m^5U have been deposited in the Cambridge Database (CCDC) and the CCDC deposit number is 835399.
Powder X-ray diffraction (PXRD) data were collected at room temperature on a Rigaku Mini Flex II desktop diffractometer using Cu Kα radiation (30 kV, 15 mA) with a 2θ range of 5°-50°, a step size of 0.010°, and a step time of 2 s. Samples were lightly ground by hand using a mortar and pestle. The same amount of the resulting powders was then mounted and analyzed on a front loading sample holder.
Different amounts of DAFP-1 were added directly to m^5U solution to determine the critical ratio of DAFP-1/m^5U.

A short description of series [8]: Crystallization of trehalose dihydrate by diffusing ethanol, with DAFP-1. It counts as physicochemical. As to conditions: without additive. From the text: Similarly, we crystallized trehalose dihydrate crystals by diffusing ethanol into the aqueous ethanol solution of trehalose directly. The protein:trehalose molar ratio (×10^−5) was 9.0 in FIG. 24(b) The crystals formed in the presence of DAFP-1 show a dramatic decrease in size as compared to the crystals obtained without additive.

The mark [9] stands for this setting: optical micrographs, no seed crystals, alone or in the presence of the named additive.

In the case of `Nc1ccn([C@@H]2O[C@H](CO)[C@@H](O)[C@H]2O)c(=O)n1` [C, cytidine], in series [1] (252 mM C, polypeptide 0 μM), the “Crystal quality (suitableness of resulting solids for single crystal x-ray diffraction)” value is “Yes”. The “Induction time (day of first appearance of solid)” value (“Induction time” below) in series [1] (252 mM C, polypeptide 0 μM, no seed crystals) amounted to 13 days. Further, the “Morphology of final achieved C solids” value in series [1] (setting [9]) is reported as “needle-like”.
Consider `O=c1[nH]cnc2c1ncn2[C@@H]1O[C@H](CO)[C@@H](O)[C@H]1O` [I, inosine], for which, in series [2] (92 mM I, polypeptide 0 μM), the “Crystal quality (suitableness of resulting solids for single crystal x-ray diffraction)” value is given as “Yes”. The “Induction time” value in series [2] (92 mM I, polypeptide 0 μM, no seed crystals) worked out at 5 days. Also, the “Morphology of final achieved I solids” value in series [2] (setting [9]) is “hair-like”.
On to `O.O.O.O.O.O=S(=O)([O-])[O-].[Cu+2]` [copper sulfate pentahydrate], for which the “Appearance of the crystal (time)” value in series [3] is reported as 7 days.
For `Cc1cn([C@@H]2O[C@H](CO)[C@@H](O)[C@H]2O)c(=O)[nH]c1=O` [form I, 5-methyluridine], the “Time crystals were stable in air” value in series [4] (in air) was “at least 2 years”. In addition, in series [4] (left in air at room temperature), the “Time without change (appearance, single crystal X-ray diffraction pattern, DSC profile) of the crystals” value is given as “more than 24 months”. For the same compound, the “Relative thermodynamic stability of the forms” value in series [5] (DSC enthalpy profiles) was “more thermodynamically stable”. For the same compound, in series [5] (heated 25 to 200° C. at 5° C./min), the “DSC endotherm associated with water loss” value stood at 139.07 °C. Further, in series [6], the “Day the crystallization completes” value is 9 days, the “Day the crystallization starts” value stood at 3 days, the “Average crystal growth rate” value is on record as 13.3 % per day and the “Crystal morphology of the form” value is recorded as “needle-like”.
Regarding `Cc1cn([C@@H]2O[C@H](CO)[C@@H](O)[C@H]2O)c(=O)[nH]c1=O` [form II, 5-methyluridine], the “Time until crystals became white opaque powders/blocks” value in series [4] (in air at room temperature) came to 2 months. Further, in series [6], the “Day the crystallization completes” value was 15 days, the “Day the crystallization starts” value was found to be 6 days, the “Average crystal growth rate” value is 10.5 % per day and the “Crystal morphology of the form” value is “block-shaped”.
Turning to `Cc1cn([C@@H]2O[C@H](CO)[C@@H](O)[C@H]2O)c(=O)[nH]c1=O` [m^5U, 5-methyluridine], the “Crystal quality (suitableness of resulting solids for single crystal x-ray diffraction)” value in series [7] (387 mM m^5U, polypeptide 0 μM) is “Yes”. Besides, in series [7] (387 mM m^5U, polypeptide 0 μM, no seed crystals), the “Induction time” value turned out to be 6 days. In addition, in series [7] (setting [9]), the “Morphology of finally achieved m^5U solids” value is reported as “Needle-like orthorhombic”.
As for `OC[C@H]1O[C@H](O[C@H]2O[C@H](CO)[C@@H](O)[C@H](O)[C@H]2O)[C@H](O)[C@@H](O)[C@@H]1O` [trehalose dihydrate], in series [8], the “Size of trehalose dihydrate crystals” value is 1-1.5 mm.

The values are drawn from patent US9394327B1, “Nucleoside crystals, crystal nucleation and growth control with antifreeze proteins” (The Trustees of California State University, priority 2013, dated 2016).
